Laboratory results reported in BindingDB's records for doi:10.1021/jm1009814 (Paris-Sud University, 2010).

How the values were obtained:
[1] = biological target: T1, Fructose-bisphosphate aldolase A (Oryctolagus cuniculus, UniProt P00883); assay: Inhibition of rabbit muscle […] class 1 Fba expressed in Escherichia coli
T1 sequence (P00883 whole entry): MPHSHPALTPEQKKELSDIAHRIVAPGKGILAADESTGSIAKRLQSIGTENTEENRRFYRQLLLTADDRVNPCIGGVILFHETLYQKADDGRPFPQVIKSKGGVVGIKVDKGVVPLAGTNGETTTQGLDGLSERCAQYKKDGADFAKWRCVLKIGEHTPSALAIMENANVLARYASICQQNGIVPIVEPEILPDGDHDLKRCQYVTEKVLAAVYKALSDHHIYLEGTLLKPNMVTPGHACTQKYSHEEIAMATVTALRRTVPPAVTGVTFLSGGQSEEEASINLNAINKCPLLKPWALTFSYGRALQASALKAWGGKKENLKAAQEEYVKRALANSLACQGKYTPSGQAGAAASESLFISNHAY

[2] = biological target: T2, Fructose-bisphosphate aldolase (Helicobacter pylori (strain ATCC 700392 / 26695), UniProt P56109); assay: Inhibition of Helicobacter pylori recombinant zinc dependent class 2 Fba expressed in Escherichia coli JM109
T2 sequence (P56109 whole entry): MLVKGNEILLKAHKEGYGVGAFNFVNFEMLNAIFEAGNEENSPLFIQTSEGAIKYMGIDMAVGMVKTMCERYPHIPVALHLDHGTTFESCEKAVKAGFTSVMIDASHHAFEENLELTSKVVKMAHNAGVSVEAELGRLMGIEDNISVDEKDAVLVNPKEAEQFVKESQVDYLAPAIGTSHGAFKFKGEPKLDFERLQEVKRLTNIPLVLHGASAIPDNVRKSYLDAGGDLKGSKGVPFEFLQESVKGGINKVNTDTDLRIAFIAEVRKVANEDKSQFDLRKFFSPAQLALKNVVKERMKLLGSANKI

[3] = biological target: T3, Fructose-bisphosphate aldolase (Candida albicans (strain SC5314 / ATCC MYA-2876), UniProt Q9URB4); assay: Inhibition of Candida albicans zinc dependent class 2 Fba
T3 sequence (Q9URB4 whole entry): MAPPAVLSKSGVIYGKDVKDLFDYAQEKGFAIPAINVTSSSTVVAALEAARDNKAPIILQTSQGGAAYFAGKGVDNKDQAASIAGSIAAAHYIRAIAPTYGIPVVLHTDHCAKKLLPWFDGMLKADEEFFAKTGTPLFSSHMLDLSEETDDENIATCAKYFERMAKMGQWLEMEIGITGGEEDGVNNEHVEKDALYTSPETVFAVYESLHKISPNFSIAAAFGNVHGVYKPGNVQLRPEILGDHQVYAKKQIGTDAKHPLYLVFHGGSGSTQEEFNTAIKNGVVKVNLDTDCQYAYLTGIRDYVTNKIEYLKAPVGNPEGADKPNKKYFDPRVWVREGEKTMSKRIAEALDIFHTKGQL

Compound | Ki [1] [µM] | Ki [2] [µM] | Ki [3] [µM]
O=C([C@H](O)COP(=O)(O)O)[C@H](O)C(O)COP(=O)(O)O (stereo partly drawn) [1,6-di-O-phosphono-D-fructose] | 15 | 17 | 85
CCCCCC(=O)OCCCCN(O)C(=O)COP(=O)(O)O [4-(N-hydroxy-2-(phosphonooxy)acetamido)butyl hexanoate] | 850 |  | 
